From patent US7605154B2, “Substituted Thiazolo [4,5-d]pyrimidines as protein kinase inhibitors” (Janssen Pharmaceutica N.V., priority 2005, dated 2009) come the findings set out here.

T1 sequence (P00533 667-1210 limits assumed): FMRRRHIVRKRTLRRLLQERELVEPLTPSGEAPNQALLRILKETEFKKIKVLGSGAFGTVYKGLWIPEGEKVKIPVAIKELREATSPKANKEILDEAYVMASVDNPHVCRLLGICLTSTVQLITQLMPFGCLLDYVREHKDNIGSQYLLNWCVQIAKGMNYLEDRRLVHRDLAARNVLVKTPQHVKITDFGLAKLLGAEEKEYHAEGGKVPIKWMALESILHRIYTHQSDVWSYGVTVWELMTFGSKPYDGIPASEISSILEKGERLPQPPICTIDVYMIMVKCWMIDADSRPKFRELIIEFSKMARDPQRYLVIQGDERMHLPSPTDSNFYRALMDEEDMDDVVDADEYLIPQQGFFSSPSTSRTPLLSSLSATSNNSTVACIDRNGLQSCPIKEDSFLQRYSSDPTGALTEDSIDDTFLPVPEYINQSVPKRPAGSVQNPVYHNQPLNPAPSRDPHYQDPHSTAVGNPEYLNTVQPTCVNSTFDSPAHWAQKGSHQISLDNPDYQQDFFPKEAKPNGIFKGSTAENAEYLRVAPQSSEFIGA

This assay concerns the target T1, EGFR (Homo sapiens, UniProt P00533).
T1 construct: started at nucleotide 2189 (corresponding to amino acid 667) and ended at the termination codon; made in house; host or cells: Sf9 insect cells (baculovirus)
Briefly: EGFR Kinase Assay. Format: biochemical. Particulars: GST-EGFR, 5 μM ATP. The source says: The portion was PCR amplified with primers that added the lambda attB sequences to each end, recombined into an entry vector, then into a, GST destination vector (as described in Gateway Technologies Manual by Invitrogen Corporation, Carlsbad, Calif.).
The destination vector was recombined in the DH10BAC strain of bacteria to produce a bacmid. The bacmid was transfected into Sf 9 cells and the supernatant containing the baculovirus was collected. The GSTEGFR protein was purified using large cultures of Sf 9 cells infected with stock virus. After an appropriate period of time, the cells were collected and lysed. The GSTEGFR was then purified from the lysate on Glutathione-Sepharose columns (as described by Amersham Biosciences, Buckinghamshire, United Kingdom).
The free biotin was separated from the biotinylated polyGluTyr on a gel filtration column.
A mixture of a 10× kinase buffer (500 mM Tris at pH 8.0, 100 mM Magnesium Chloride and 1 mM Sodium Vanadate), DTT (1 mM final from 500 mM stock), ATP (5 μM final from 10 mM stock), biotinylated polyGluTyr (10 μg/μL stock), γ-^33P ATP (10 μCi/μL stock) and water was added to each well (90 μL/well) of a Streptavidin Flashplate (Perkin Elmer, Wellesley, Mass.).
Test compound in 100% DMSO (2 μL) was added to the appropriate wells. Diluted GSTEGFR (1:300 dilution in 50 mM Tris at pH 8.0 and 0.1% bovine serum albumin) (10 μL) was added to the wells to initiate the reactions.
The plates were incubated at 30° C. for 1 hr with shaking. The reacted contents were removed and the plates were sequentially washed three times with a 1×PBS stop buffer (300 μL without Magnesium and Calcium) and 100 mM EDTA. After the final wash, the same stop buffer (200 μL) was added to the wells. The plates were then sealed and read on the TopCount scintillation counter.
Test compounds were assayed in triplicate at 16 concentrations at half-log dilutions starting at 200 uM. A maximum and minimum signal for the assay was determined on each plate. The percent inhibition of a test compound was calculated according to the formula
For a series of test concentrations, the IC50 was derived by graphing percent inhibition against the log of the concentrations tested for a given compound.
A word on the IC50: it is the concentration at which inhibition is half-maximal. Read a low IC50 as higher potency. The compound `Fc1ccc(Nc2ncnc3nc(Nc4ccc(N5CCOCC5)cc4)sc23)cc1Cl` [Cpd 1, N^7-(3-chloro-4-fluoro-phenyl)-N^2-(4-morpholin-4-yl-phenyl)-thiazolo[4,5-d]pyrimidine-2,7-diamine] registered an IC50 of 44 nM.
For `Fc1ccc(Nc2ncnc3nc(Nc4cccc(CN5CCOCC5)c4)sc23)cc1Cl` [Cpd 3, N^7-(3-chloro-4-fluoro-phenyl)-N^2-(3-morpholin-4-ylmethyl-phenyl)-thiazolo[4,5-d]pyrimidine-2,7-diamine], half-maximal inhibition (IC50) was put at 119 nM.
As to `CN1CCN(Cc2ccc(Nc3nc4ncnc(Nc5ccc(F)c(Cl)c5)c4s3)cc2)CC1` [Cpd 5, N^7-(3-chloro-4-fluoro-phenyl)-N^2-[4-(4-methyl-piperazin-1-ylmethyl)-phenyl]-thiazolo[4,5-d]pyrimidine-2,7-diamine], 18.4 nM corresponded to half-maximal inhibition (IC50).
With `COc1cc(Nc2nc3ncnc(Nc4ccc(F)c(Cl)c4)c3s2)ccc1CN1CCCCC1` [Cpd 6, N^7-(3-chloro-4-fluoro-phenyl)-N^2-(3-methoxy4-piperidin-1-ylmethyl-phenyl)-thiazolo[4,5-d]pyrimidine-2,7-diamine], the IC50 worked out at 20 nM.
`CCc1nccn1Cc1ccc(Nc2nc3ncnc(Nc4cccc(Cl)c4)c3s2)cc1` [Cpd 7, N^7-(3-chloro-phenyl)-N^2-[4-(2-ethyl-imidazol-1-ylmethyl)-phenyl]-thiazolo[4,5-d]pyrimidine-2,7-diamine] showed an IC50 of 13 nM.
For `Clc1cccc(Nc2ncnc3nc(Nc4cccc(CN5CCCCC5)c4)sc23)c1` [Cpd 8, N^7-(3-chloro-phenyl)-N^2-(3-piperidin-1-ylmethyl-phenyl)-thiazolo[4,5-d]pyrimidine-2,7-diamine] the value was 34.7 nM; for `Clc1cccc(Nc2ncnc3nc(Nc4ccc(Cc5ccncc5)cc4)sc23)c1` [Cpd 9, N^7-(3-chloro-phenyl)-N^2-(4-pyridin-4-ylmethyl-phenyl)-thiazolo[4,5-d]pyrimidine-2,7-diamine], 18 nM.
In turn, `CN(C)Cc1ccc(Nc2nc3ncnc(Nc4ccc(F)c(Cl)c4)c3s2)cc1` [Cpd 10, N^7-(3-chloro-4-fluoro-phenyl)-N^2-(4-dimethylaminomethyl-phenyl)-thiazolo[4,5-d]pyrimidine-2,7-diamine] gave an IC50 of 12.3 nM.
For `COc1ccc(Nc2nc3ncnc(Nc4ccc(F)c(Cl)c4)c3s2)cc1` [Cpd 12, N^7-(3-chloro4-fluoro-phenyl)-N^2-(4-methoxy-phenyl)-thiazolo[4,5-d]pyrimidine-2,7-diamine] the value was 117 nM; for `Oc1ccc(Nc2nc3ncnc(Nc4ccc(F)c(Cl)c4)c3s2)cc1` [Cpd 13, 4-[7-(3-chloro4-fluoro-phenylamino)-thiazolo[4,5-d]pyrimidin-2-ylamino]-phenol], 95 nM.
`Fc1ccc(Nc2ncnc3nc(Nc4ccc(OCCN5CCOCC5)cc4)sc23)cc1Cl` [Cpd 14, N^7-(3-chloro-4-fluoro-phenyl)-N^2-[4-(2-morpholin-4-yl-ethoxy)-phenyl]-thiazolo[4,5-d]pyrimidine-2,7-diamine]: the IC50 worked out at 59.4 nM.
With `Fc1ccc(Nc2ncnc3nc(Nc4ccc(OCCN5CCCC5)cc4)sc23)cc1Cl` [Cpd 15, N^7-(3-chloro-4-fluoro-phenyl)-N^2-[4-(2-pyrrolidin-1-yl-ethoxy)-phenyl]-thiazolo[4,5-d]pyrimidine-2,7-diamine], the concentration for half-maximal inhibition (IC50) worked out at 90.1 nM.
Regarding `Fc1ccc(Nc2ncnc3nc(Nc4ccc(OCCCN5CCN(c6ccc(Cl)cc6)CC5)cc4)sc23)cc1Cl` [Cpd 16, N^7-(3-chloro-4-fluoro-phenyl)-N^2-(4-{3-[4-(4-chloro-phenyl)-piperazin-1-yl]-propoxy}-phenyl)-thiazolo[4,5-d]pyrimidine-2,7-diamine], inhibition was half-maximal at 165 nM (IC50).
`Fc1ccc(Nc2ncnc3nc(Nc4ccc(CN5CCCCCC5)cc4)sc23)cc1Cl` [Cpd 19, N^2-(4-azepan-1-ylmethyl-phenyl)-N^7-(3-chloro-4-fluoro-phenyl)-thiazolo[4,5-d]pyrimidine-2,7-diamine] displayed an IC50 of 6 nM.
Regarding `Fc1ccc(Nc2ncnc3nc(Nc4ccc(CN5CCSCC5)cc4)sc23)cc1Cl` [Cpd 20, N7-(3-chloro-4-fluoro-phenyl)-N^2-(4-thiomorpholin4-ylmethyl-phenyl)-thiazolo[4,5-d]pyrimidine-2,7-diamine], the IC50 came out at 49.3 nM.
Turning to `CN(Cc1ccc(Nc2nc3ncnc(Nc4ccc(F)c(Cl)c4)c3s2)cc1)C1CCCCC1` [Cpd 21, N^7-(3-chloro-4-fluoro-phenyl)-N^2-{4-[(cyclohexyl-methyl-amino)-methyl]-phenyl}-thiazolo[4,5-d]pyrimidine-2,7-diamine], the IC50 came to 13.3 nM.
The same measure for `NCC1CCN(Cc2ccc(Nc3nc4ncnc(Nc5ccc(F)c(Cl)c5)c4s3)cc2)CC1` [Cpd 22, N^2-[4-(4-aminomethyl-piperidin-1-ylmethyl)-phenyl]-N^7-(3-chloro-4-fluoro-phenyl)-thiazolo[4,5-d]pyrimidine-2,7-diamine]: 9.3 nM; for `Fc1ccc(Nc2ncnc3nc(Nc4ccc(Cn5ccnc5)cc4)sc23)cc1Cl` [Cpd 23, N^7-(3-chloro-4-fluoro-phenyl)-N^2-(4-imidazol-1-ylmethyl-phenyl)-thiazolo[4,5-d]pyrimidine-2,7-diamine]: 6.3 nM.
The same measure for `CC1CC(C)CN(Cc2ccc(Nc3nc4ncnc(Nc5ccc(F)c(Cl)c5)c4s3)cc2)C1` (centres unmarked) [Cpd 24, N^7-(3-chloro-4-fluoro-phenyl)-N^2-[4-(3,5-dimethyl-piperidin-1-ylmethyl)-phenyl]-thiazolo[4,5-d]pyrimidine-2,7-diamine]: 21.6 nM; for `COC[C@@H]1CCCN1Cc1ccc(Nc2nc3ncnc(Nc4ccc(F)c(Cl)c4)c3s2)cc1` [Cpd 26, N^7-(3-chloro-4-fluoro-phenyl)-N^2-[4-(2S)-(2-methoxymethyl-pyrrolidin-1-ylmethyl)-phenyl]-thiazolo[4,5-d]pyrimidine-2,7-diarmine]: 11.8 nM; for `CN(C)C(=O)c1ccc(Nc2nc3ncnc(Nc4ccc(F)c(Cl)c4)c3s2)cc1` [Cpd 27, 4-[7-(3-chloro-4-fluoro-phenylamino)-thiazolo[4,5-d]pyrimidin-2-ylamino]-N,N-dimethyl-benzamide]: 15 nM.
As for `CCOC(=O)N1CCN(Cc2ccc(Nc3nc4ncnc(Nc5ccc(F)c(Cl)c5)c4s3)cc2)CC1` [Cpd 28, 4-{4-[7-(3-chloro-4-fluoro-phenylamino)-thiazolo[4,5-d]pyrimidin-2-ylamino]-benzyl}-piperazine-1-carboxylic acid ethyl ester], half-maximal inhibition (IC50) required 57 nM.
The compound `CCOC(=O)C1CCN(Cc2ccc(Nc3nc4ncnc(Nc5ccc(F)c(Cl)c5)c4s3)cc2)CC1` [Cpd 29, 1-{4-[7-(3-chloro-4-fluoro-phenylamino)-thiazolo[4,5-d]pyrimidin-2-ylamino]-benzyl}-piperidine-4-carboxylic acid ethyl ester] gave an IC50 of 27.8 nM.
In turn, `CCc1nccn1Cc1ccc(Nc2nc3ncnc(Nc4ccc(F)c(Cl)c4)c3s2)cc1` [Cpd 30, N^7-(3-chloro-4-fluoro-phenyl)-N^2-[4-(2-ethyl-imidazol-1-ylmethyl)-phenyl]-thiazolo[4,5-d]pyrimidine-2,7-diamine] came in with a half-inhibitory concentration (IC50) of 5.5 nM.
As for `c1ccc(Cn2ncc3ccc(Nc4ncnc5nc(Nc6ccc(CN7CCOCC7)cc6)sc45)cc32)cc1` [Cpd 36, N^7-(1-benzyl-1H-indazol-6-yl)-N^2-(4-morpholin-4-ylmethyl-phenyl)-thiazolo[4,5-d]pyrimidine-2,7-diamine], 1020 nM corresponded to half-maximal inhibition (IC50).
The same measure for `C#Cc1cccc(Nc2ncnc3nc(Nc4ccc(S(=O)(=O)NCCCN(C)C)cc4)sc23)c1` [Cpd 37, N-(3-dimethylamino-propyl)-4-[7-(3-ethynyl-phenylamino)-thiazolo[4,5-d]pyrimidin-2-ylamino]-benzenesulfonamide]: 25.3 nM.
For `C#Cc1cccc(Nc2ncnc3nc(Nc4ccc(CN(CCOC)CCOC)cc4)sc23)c1` [Cpd 38, N^2-(4-{[bis-(2-methoxy-ethyl)-amino]-methyl}-phenyl)-N^7-(3-ethynyl-phenyl)-thiazolo[4,5-d]pyrimidine-2,7-diamine] the value was 28.5 nM; for `O=S(=O)(NCCO)c1ccc(Nc2nc3ncnc(Nc4ccc(F)c(Cl)c4)c3s2)cc1` [Cpd 39, 4-[7-(3-chloro-4-fluoro-phenylamino)-thiazolo[4,5-d]pyrimidin-2-ylamino]-N-(2-hydroxy-ethyl)-benzenesulfonamide], 2.5 nM; for `O=S(=O)(NCCN1CCOCC1)c1ccc(Nc2nc3ncnc(Nc4ccc(F)c(Cl)c4)c3s2)cc1` [Cpd 40, 4-[7-(3-chloro-4-fluoro-phenylamino)-thiazolo[4,5-d]pyrimidin-2-ylamino]-N-(2-morpholin-4-yl-ethyl)-benzenesulfonamide], 9 nM.
